Laboratory results reported in patent publication US20140286906A1, “USE OF IGF-1 IN THE MODULATION OF TREG CELL ACTIVITY AND THE TREATMENT AND PREVENTION OF AUTOIMMUNE DISORDERS OR DISEASES” (priority 2011, published 2014).
Like-named read-outs stand apart in the source and are kept apart here.

Experiments:
[1] = test system: CD25 negative subset (conventional T cells); assay: in vitro expansion of FACS-sorted splenic CD4+CD25- cells; type: cell-based, murine; conditions: TCR stimulation with anti-CD3 and anti-CD28 antibodies
Excerpt: (§1) Initially, and in order to characterize the in vitro effects of IGF-1 on the different populations of the […] immune system, murine splenic CD4 positive cells were sorted by FACS based on the expression of CD25. This allows for the separation and enrichment of conventional T cells (CD25 negative) and regulatory T cells (CD25 positive). […] To exclude the possibility that the observed expansion was due to the anti-apoptotic properties of IGF-1, the cells in culture were stained with AnnexinV (a marker of apoptosis) and a vital dye, and then analyzed by flow cytometry.

CD4+CD25+ cells = assay: Annexin V / living dye apoptosis flow cytometry, CD4+CD25+ cells; type: cell-based, murine
Excerpt: (§2) The effects of IGF-1 on apoptosis can be measured by flow cytometry. By using a combination of a living dye and Annexin V staining it is possible to determine four different cell populations which correspond to non-apoptotic, necrotic, early and late apoptosis.
as §1

[2] = test system: CD4+CD25- cells (T conventional cells); assay: Annexin V / living dye apoptosis flow cytometry, CD4+CD25- cells; type: cell-based, murine
Excerpt: as §2, §1

CD4+CD25+ splenic cells = assay: qRT-PCR and microarray gene expression in CD4 CD25 double positive splenic cells; type: cell-based, murine
Experimental: To further support the effect of IGF-1 on T regulatory function qRT-PCR analysis was performed on CD4 CD25 double positive splenic purified cells in the presence or absence of IGF-1 (FIG. 3). […] IL-10 is a cytokine with a potent anti-inflammatory activity that is produced, among others, by regulatory T cells (Mosser and Zhang, 2008) and its expression is not dependent on Foxp3 expression (Gavin et al., 2007). Foxp3 IL10 expressing cells mainly localize in the intestine and are important regulators of intestine homeostasis. For example, mice with conditional deletion of IL-10 develop spontaneous inflammation of the intestine (Roers et al., 2004). […] Additionally, IL-10 is also important for the maintenance of Foxp3 expression in vivo in mice with colitis (Murai et al., 2009). The inventors performed microarray analysis comparing IGF-1 treated and untreated Tregs. […] An example of these genes is granzyme B, which enables T regulatory cells to actively kill APCs and Teff cells in extreme conditions. These and other mechanisms are believed to lead in vivo to the resolution of the immune response (Tang and Bluestone, 2008). Thus, maintaining the suppressive function after cell expansion was a critical aspect regarding the use of IGF-1 for restoring the balance of effector and regulatory.

[3] = test system: CD4+ cells isolated from mesenteric lymph nodes; assay: intraperitoneal injection, RT-PCR of CD4+ cells from mesenteric lymph nodes; type: in vivo, mice; conditions: five intraperitoneal daily injections (5 μg); RT-PCR after the fifth day; n=30, P=0.0241
STZ induced diabetes = assay: streptozotocin (STZ) induced autoimmune diabetes, systemic rhIGF-1 delivery; type: in vivo, mice
Excerpt: Regarding the functional assay for diabetes a protocol that measures the clearance of a standardized glucose load from the body after intraperitoneal injection was used (intraperitoneal glucose tolerance test, see Heikkinen et al. (2007)).
Beta-cells sense glucose levels and release insulin to maintain physiologic glucose levels within a relatively narrow range. Destruction of beta-cells by the immune system is correlated with the inability to control glucose levels (measured by the glucose tolerance test). Another way to assess whether IGF-1 stimulates proliferation and/or recruitment of regulatory T cells to the damaged tissues is by determining the number of FOXP3 expressing cells per unit area in the affected tissues by immunohistochemistry.
(§3) Shortly, single cell suspensions are prepared from the […] and spinal cord. The resulting cells are stained with anti-CD4 antibodies and separated using fluorescent-activated cell sorting. RNA is then extracted and purified and serves as a template for a quantitative RT-PCR reaction with Taqman probes. Finally, the relative amount of each mRNA compared to a house-keeping gene (Hprt) is determined.
An accepted model of experimental autoimmune diabetes in mice is the induction of diabetes by multiple injections of a low dose of streptozotocin (STZ). STZ causes diabetes by direct beta cell cytotoxicity as well as by initiation of T cell-mediated autoimmune attack of β-cells (O'Brian et al., 1996). Using this model the inventors examined if systemic delivery of rhIGF-1 could prevent autoimmune diabetes in the early stages of the disease. […] The inventors therefore addressed the effects of IGF-1 […] and sixty-one days after the treatment was stopped.
First the inventors examined the ability of CsA to suppress IGF-1 activity in vitro. […] Then the inventors tested whether CsA treatment in vivo could also impair IGF-1 protective effect at early stages of the disease. A GTT was performed three weeks from the first STZ injection.

[4] = test system: experimental autoimmune encephalomyelitis (EAE); type: in vivo
Experimental: Regarding EAE, clinical severity of the disease is scored using a grading score from 0 to 5, where 0 means no clinical signs and 5 means a moribund paralysed mouse. As the disease progresses the body is paralysed progressively from tail to upper limbs. In these experiments the protocol described by Stromnes and Goverman (2006) is used.
as §3
Based on these and our previous observations, the inventors hypothesized that systemic and prolonged delivery of IGF-1 in mice developing EAE would increase and correctly localized Tregs and thus positively affect the course of the disease. The inventors therefore implanted subcutaneously the IGF-1 delivery devices and induced EAE in mice. […] In order to determine if the amelioration of the disease was associated with an increase in T regulatory function, the inventors performed immunohistochemical analysis to determine the number and localization of T regulatory cells in the spinal cord at the early stages of the disease. […] There was therefore a negative correlation between the number of Treg cells and the observed clinical score. Moreover, both clinical improvement and increased regulatory cell number associated with IGF-1 treatment were abolished by CTLA-4 blockade, which interferes with regulatory T cell function (FIG. 26; Herman et al., 2004).
The inventors induced EAE and mice and initiated the IGF-1 treatment when the first signs of paralysis appeared (FIG. 27).

[5] = test system: experimental autoimmune encephalomyelitis (EAE); conditions: cited from earlier work
EAE = conditions: i.v. 600 μg/day for six days (Liu et al. 1997); cited from earlier work
[6] = qRT-PCR, compared to non-treated cultures
[7] = RT-PCR day 27, compared to control mice

Which “in vitro expansion of CD25 negative subset” value [1] does the source give for Insulin-like growth factor-1 [IGF-1] here?
Its value is “no reproducible effect”.

And the “distribution of Annexin V and living dye stained populations” value (CD4+CD25+ cells)?
The value was “No difference”.

And the protection from apoptosis [2]?
The protection from apoptosis was “partially protected from apoptosis”.

What about the “granzyme B gene expression” value (CD4+CD25+ splenic cells; microarray, IGF-1 treated versus untreated Tregs) of the same substance?
Its value is “upregulated”.

And the “Foxp3 mRNA” value (CD4+CD25+ splenic cells; [6])?
Its value is “upregulated from day 1”.

What about the “IL-10 mRNA” value (CD4+CD25+ splenic cells; [6]) of the same substance?
Its value is “upregulated but with delayed kinetics”.

What about the “expression of Foxp3 in CD4+ cells from mesenteric lymph nodes” value [3] of the same substance?
Its value is “increased expression”.

What about the “ratio of CD4:Foxp3 positive cells in the spleen” value (STZ induced diabetes; IGF-1 treatment, P=0.004) of the same substance?
Its value is “decreased”.

What about the “Foxp3 mRNA in pancreatic CD4 positive cells” value (STZ induced diabetes; RT-PCR seven weeks after disease induction, beyond treatment) of the same substance?
The value was “higher expression”.

And the “cell mass and architecture of insulin-producing pancreatic islands (insulin staining)” value (STZ induced diabetes; day ninety-seven after first STZ injection)?
The value was “long-lasting protective effects”.

What about the “density of T regulatory cells in pancreas (Foxp3 staining)” value (STZ induced diabetes; day ninety-seven after first STZ injection, P=0.0159) of the same substance?
The value was “higher density of T regulatory cells”.

What about the “glucose control in untreated (non-diabetic) mice” value (STZ induced diabetes; mice without STZ) of the same substance?
Its value is “no effect”.

And the “glucose homeostasis (GTT AUC) after end of treatment” value (STZ induced diabetes; nice and sixty-one days after treatment was stopped, P37d=0.016, P89d=0.036)?
Its value is “long-term improved glucose homeostasis”.

And the “blood glucose in glucose tolerance test (GTT)” value (STZ induced diabetes; three weeks from first STZ injection, four weeks after pump implantation)?
Its value is “lower glucose levels”.

And the “Foxp3 expression in CD4 positive cells of the spinal cord” value [4, 7]?
Its value is “increase”.

What about the “IL-10 expression in CD4 positive cells of the spinal cord” value [4, 7] of the same substance?
Its value is “increase”.

What about the “IL-17 expression in CD4 positive cells of the spinal cord” value [4, 7] of the same substance?
Its value is “decrease”.

What about the “interferon-gamma expression in CD4 positive cells of the spinal cord” value [4, 7] of the same substance?
The value was “decrease”.

And the “Treg cell number in the spinal cord (immunohistochemistry)” value ([4]; early stages of the disease)?
The value was “increase in Treg cell number”.

What about the “detrimental effect in EAE” value ([4]; mouse, in vivo) of the same substance?
The value was “never showed a detrimental effect”.

And the mortality ([4]; prophylactic or therapeutic manner, n=34, P=0.028)?
The mortality was “significantly reduced mortality”.

What about the “clinical outcome (clinical grading)” value ([4]; prophylactic: delivery device implanted day -3, immunization day 0, 4 weeks, n=13) of the same substance?
The value was “improved clinical outcome”.

What about the clinical severity ([4]; therapeutic: applied after onset of disease (day 11), P<0.05 from day 13) of the same substance?
Its clinical severity is “reduced clinical severity”.

And the “course of EAE” value ([5]; 10 mg/kg per day given after disease onset (Lovett-Racke et al.))?
Its value is “did not significantly alter the course of disease”.

What about the “course of EAE” value ([5]; 10 mg/kg per day given before disease onset (Lovett-Racke et al.)) of the same substance?
The value was “mild protection”.

And the “clinical course of EAE” value ([5]; administration during the acute phase (Cannella et al.))?
Its value is “some transient clinical amelioration”.

What about the “clinical course of EAE” value ([5]; chronic phase (Cannella et al.)) of the same substance?
Its value is “no effect”.

What about the “number of infiltrating T cells and macrophages” value (EAE) of the same substance?
The value was “reduction”.
